Measurements published in patent US20200345725A1, “Methods and Compositions for Treating Cancer” (Omeros Corporation, priority 2019, published 2020).

Assays:
Assay type in all cases: cell-based
human T cells = assay: PD-L1, TIGIT and AREG expression on human T cells in PBMC; conditions: 1.25 or 5 μM; one day post-stimulation
Procedure: PBMC cells from a single donor mixed with additional irradiated antigen-presenting cells (APC) and anti-CD3 antibodies (UCHT1) were incubated in the presence of various concentrations of GPR174 inhibitory compound 10 (1.25 to 5 μM) or equivalent concentrations of vehicle (DMSO). The cells were analyzed by flow cytometry for expression of CD4, CD8, PD-L1, TIGIT and AREG.

human PBMCs [1] = assay: CTLA-4 expression on naive and memory T cells in human PBMC; conditions: 0.19-6.0 μM; one day post-stimulation; vs vehicle
Procedure: PBMC cells from a single donor were cultured overnight with additional irradiated antigen-presenting cells (APC) in the presence of various concentrations of GPR174 inhibitory compound 10 (0.019 to 6 μM) or equivalent concentrations of vehicle (DMSO). Anti-CD3 (OKT3) was then added to the cultures for an additional 24 hours. The cells were analyzed by flow cytometry for expression of FOXP3, CTLA-4, CD4, CD3, CD45RA and CD25.

human PBMCs [2] = assay: Treg (FoxP3/Helios) flow cytometry in stimulated human PBMC
Procedure: (§1) A fraction of the cells was taken for staining on day 3 post-stimulation, while the rest of the cells were split 1:4 with fresh medium and used for staining on day 7 post-stimulation. To determine the fraction of natural Treg (nTreg) cells (FoxP3^+Helios^+), PBMCs were washed, stained with fluorescently labeled anti-CD4 antibodies, fixed, permeabilized and stained with a mixture of fluorescent anti-FoxP3 and anti-Helios antibodies. Labeled cells were analyzed by flow cytometry for populations stained for these three markers. Each experiment was performed in triplicate and was repeated five times.
as §1, with “(FoxP3^+Helios^−),” for “(FoxP3^+Helios^+),”, “three” for “five”
as §1, with “day 2” for “day 3”, “(FoxP3^+Helios^+), PBMC” for “(FoxP3^+Helios^+), PBMCs”

purified human T cells = assay: Cytokines of purified human T cells activated with K562 cells, with or without PS liposomes, tumor exosomes, GPR174 inhibitor; conditions: for IFN-γ FC (fold change), Compound 10 vs Vehicle / IL-2 FC (fold change), Compound 10 vs Vehicle / TNF FC (fold change), Compound 10 vs Vehicle: stimulated human T cells, compound 10, 0.5 μM
Procedure: Purified human T cells (Astarte Biologies, Inc) were activated in the presence of K562 cells (as artificial antigen presenting cells) presenting anti-CD3 and CD80.Fc via Fc-receptor binding, in 96-well U-bottom plates containing X-vivo-15 media in the following conditions:
Anti-CD3 (clone UCHT1, 0.5 μg/mL)
CD80.Fc fusion protein (R&D Systems, 2 μg/mL)
Exosomes from human breast cancer tumor cell line MDA-MB-231 (12 μg/mL) (EXOP-105A-1 from System Biosciences, LLC)
GPR174 inhibitor (compound 10, 0.5 μM or 3 μM)
Cells were cultured for 24 hours and supernatants were evaluated for cytokine concentrations (Legendplex, Biolegend).

GPR174 [3] = biological target: T1, GPR174 (Mus musculus, UniProt Q3U507); assay: IL-2 production from purified GPR174 WT and GPR174-KO mouse T cells with PS liposomes (FIG. 67); conditions: GPR174 WT mouse T cells, in presence of PS liposomes, FIG. 67
T1 construct: endogenous in cells; host or cells: purified mouse T cells from WT (and GPR174-KO) mice
T1 sequence (Q3U507 whole entry): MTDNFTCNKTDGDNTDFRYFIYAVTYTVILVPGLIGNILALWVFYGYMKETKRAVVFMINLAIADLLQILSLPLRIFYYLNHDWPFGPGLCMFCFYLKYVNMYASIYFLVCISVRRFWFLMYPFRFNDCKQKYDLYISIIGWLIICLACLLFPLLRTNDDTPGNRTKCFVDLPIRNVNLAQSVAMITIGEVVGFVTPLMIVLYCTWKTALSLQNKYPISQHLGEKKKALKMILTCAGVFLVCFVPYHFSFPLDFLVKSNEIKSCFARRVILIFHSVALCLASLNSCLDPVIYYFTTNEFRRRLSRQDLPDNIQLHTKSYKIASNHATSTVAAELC

GPR174 [4] = assay: as above
human PBMCs [5] = assay: Intracellular cytokine staining in cell populations of human PBMC; conditions: 2 days after stimulation
Procedure: In a first experiment, human PBMCs from two different donors were incubated overnight in the presence or absence of compound 10 (10 μM). […] The cells were fixed four hours later and stained with antibodies for cell type markers (FITC-anti-CD3 and PerCP-C95.5-anti-CD4) and IL-2 (PE-anti-IL-2). The cells were analyzed by flow cytometry. The fraction of cells with intracellular IL-2 (PE-labeled) was then determined in the CD4^+ and CD8^+ T cell populations, as well as in non-T cells.
In a second experiment, human PBMCs from two different donors were stimulated with anti-CD3 and anti-CD28 antibodies and incubated in the absence or presence of increasing concentrations of compound 10 (0, 0.1, 0.3, 1.0, or 3.0 μM). The vesicular transport was blocked two days later with GolgiStop™. The cells were fixed four hours later and stained with antibodies for cell type markers (FITC-anti-CD3, PerCP-Cy5.5-anti-CD4, PE-anti-CD56 and Pacific Blue-anti-CD16) and either of the cytokines IL-2, IL-10 and IFN-γ (anti-cytokine antibodies were all APC-labeled). The cells were analyzed by flow cytometry. The fraction of cells with intracellular IL-2, IFN-γ, IL-10 and […] was then determined in different cellular populations.

[6] = in the presence of Exosomes (human breast cancer tumor-derived)
[7] = in the presence of PS Liposomes

With `CC1CCN(c2cc(N3CCN(S(=O)(=O)c4ccccc4)CC3)c([N+](=O)[O-])cc2F)CC1` [compound 10] the “AREG expression in CD4+ T cells” value (human T cells) was “reduced”, the “PD-L1 expression in CD4+ T cells” value (human T cells) was “reduced” and the “TIGIT expression in CD8+ T cells” value (human T cells) was “reduced”. For the same molecule, the “CTLA4 expression in memory Treg cells (CD45RA−FOXP3+)” value (human PBMCs [1]) was “reduced”, the “CTLA4 expression in memory non-Treg cells (CD45RA−FOXP3−)” value (human PBMCs [1]) was “reduced” and the “CTLA4 expression in naive Treg cells (CD45RA+FOXP3+)” value (human PBMCs [1]) was “reduced”. For the same molecule, the “CTLA4 expression in naive non-Treg cells (CD45RA+FOXP3−)” value (human PBMCs [1]) was “reduced”, the “percentage of FoxP3+Helios+ (nTreg) cells in the CD4+ cell population” value (human PBMCs [2]; Example 6, day 7 post-stimulation, 100 μM, vs vehicle) was “significantly reduced” and the “percentage of FoxP3+Helios+ (nTreg) cells in the CD4+ cell population” value (human PBMCs [2]; Example 8, day 7, single donor, 3, 10, 30 μM) was “significantly reduced”. For the same molecule, the “FoxP3+Helios+ (nTreg) cells in the CD4+ cell population, fraction of vehicle” value (human PBMCs [2]; Example 9, day 7, eight donors, 30 μM) was “significantly reduced”, the “percentage of FoxP3+Helios− cells in the CD4+ cell population” value (human PBMCs [2]; day 3 post-stimulation, 100 μM, vs vehicle) was “significantly increased” and the “IL-2 production, fold change by compound 10 in the absence of PS liposomes (FIG. 65)” value (purified human T cells; compound 10 3 μM) was 1.3 fold. The “IL-2 production, fold change by compound 10 in the presence of PS liposomes (FIG. 65)” value (purified human T cells; compound 10 3 μM, PS liposomes 1 μM) was 2.4 fold, the “IFN-γ FC (fold change), Compound 10 vs Vehicle” value (“IFN-γ FC (fold change)” for short) (purified human T cells; [6]) was 1.4 and the “IL-2 FC (fold change), Compound 10 vs Vehicle” value (shortened to “IL-2 FC (fold change)”) (purified human T cells; [6]) was 1.7. For the same molecule, the “TNF FC (fold change), Compound 10 vs Vehicle” value (shortened to “TNF FC (fold change)”) (purified human T cells; [6]) was 1.7, the “IFN-γ FC (fold change)” value (purified human T cells; in the presence of Media) was 1.1 and the “IL-2 FC (fold change)” value (purified human T cells; in the presence of Media) was 1.2. The “TNF FC (fold change)” value (purified human T cells; in the presence of Media) was 1.4, the “IFN-γ FC (fold change)” value (purified human T cells; [7]) was 1.3 and the “IL-2 FC (fold change)” value (purified human T cells; [7]) was 1.4. For the same molecule, the “TNF FC (fold change)” value (purified human T cells; [7]) was 1.7, the “reversal of PS liposome-mediated suppression of IL-2, fold change” value (GPR174 [3]) was 3.5 fold and the “effect on IL-2 in presence of PS liposomes, fold change” value (GPR174 [4]; GPR174-KO mouse T cells, FIG. 67) was 0.9 fold. The “effect on T cell response in the absence of PS or GPR174” value (GPR174 [4]; purified human and mouse T cells) was “negligible effect”, the “intracellular IFN-γ production by cell type” value (human PBMCs [5]; 0.1-3.0 μM) was “enhanced in CD4 and CD8 positive T cells, as well as in NK cells” and the “intracellular IL-2 production by cell type” value (human PBMCs [5]; 0.1-3.0 μM) was “induced specifically in T cells, both CD4 and CD8 positive”. The “intracellular IL-10 production by cell type” value (human PBMCs [5]; 0.1-3.0 μM) was “induced specifically in T cells, both CD4 and CD8 positive” and the “intracellular TNF-α production by cell type” value (human PBMCs [5]; 0.1-10 μM) was “enhanced in CD4 and CD8 positive T cells, as well as in NK cells”.
